Experiment [1] addresses T1, human PD-1/PD-L1 binding (Homo sapiens, UniProt Q9NZQ7).
T1 construct: PD-L1-His protein (19 to 238 amino acids) (Abcam #ab167713); purchased Abcam (PD-L1-His); R&D (PD-1-Fc) ab167713; 1086-PD
Put plainly: Inhibition of human PD-1/PD-L1 binding (TR-FRET/HTRF). The conditions noted are these: TR-FRET, PD-L1-His and PD-1-Fc; read-out: PD-1/PD-L1 binding IC50. In outline: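 PD-L1-His (aa 19–238, diluted to 10 nM) and PD-1-Fc (aa 25–167, diluted to 20 nM) incubated with compounds (10 μM or 1 μM top, 3-fold, 11 doses) 60 min at room temperature, then anti-6HIS Eu cryptate/anti-human IgG-XL665 added for 3 h RT or overnight 4 °C. HTRF 665/620 nm ratio gave inhibition and IC50.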

Experiment [2] deals with T2, PD-L1 protein on the surface of MC38-hPDL1 tumor cells (Homo sapiens, UniProt Q9NZQ7).
T2 construct: expressed in transfected cells; host or cells: MC38-hPDL1 (mouse colon cancer cells)
T2 sequence (Q9NZQ7 19-290): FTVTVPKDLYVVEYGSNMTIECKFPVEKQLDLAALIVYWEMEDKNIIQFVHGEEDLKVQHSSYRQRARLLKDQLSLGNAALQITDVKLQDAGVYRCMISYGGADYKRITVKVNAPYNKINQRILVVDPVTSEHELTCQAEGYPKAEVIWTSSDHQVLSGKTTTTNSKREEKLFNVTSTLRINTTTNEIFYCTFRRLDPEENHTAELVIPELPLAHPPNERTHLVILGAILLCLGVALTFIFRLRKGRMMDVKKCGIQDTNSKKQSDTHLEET
Kind of experiment: Induction of endocytosis of PD-L1 on the surface of tumor cells (flow cytometry). Type of experiment: cell-based. The note with it: 16 hours incubation; for Emax: MC38-hPDL1 cells, read-out: MC38 maximum endocytosis rate; for IC50: inducing endocytosis of PD-L1, MC38-hPDL1 cells, read-out: MC38 IC50. The method, boiled down:
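IC50 comes from nonlinear fits of endocytosis rate, calculated from the loss of surface PE-anti-CD274 flow signal relative to vehicle. Cells were MC38 mouse colon cancer cells engineered to express high human PD-L1. Compound exposure lasted 16 h at 37 °C, 5% CO2.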

Experiment [3] has as its target T3, human PD-L1 protein (Homo sapiens, UniProt Q9NZQ7).
T3 construct: purchased Acro Biosystems PD1-H5229
Put plainly: Thermal shift: melting temperature of PD-L1 protein. Type of experiment: binding. The note with it: compound 10 μM, PD-L1 protein 2 μM, Tm minus DMSO vehicle control; for ΔTm at 10 µM: read-out: ΔTm (° C.). How it is done: Test Embodiment 4. Test of Combination of the Compounds of the Present Disclosure to Improve the Stability (Melting Temperature) of PD-L1 Protein Experimental purpose: To test the ability of compounds to enhance the stability of PD-L1 protein and increase the melting temperature of the protein. Experimental method: […] A solution containing […] HEPES, SYPRO Orange, and 150 mM NaCl was prepared as experimental buffer, and human PD-L1 protein was added at a final concentration of 2 μM. […] PCR tube was put into the PCR machine, and the melt curve function was selected to detect the melting temperature of PD-L1 protein in different treatment groups (heated from 25° C. to 95° C., 0.03° C./s). The experimental data file of the PCR instrument was imported into the thermal shift software to obtain the melting temperature (Tm) of each treatment group, and the Tm of the DMSO vehicle control group was subtracted to obtain the change value (ΔTm) of the melting temperature, as shown in the following table: […]

T3 sequence (Q9NZQ7 19-238 limits assumed): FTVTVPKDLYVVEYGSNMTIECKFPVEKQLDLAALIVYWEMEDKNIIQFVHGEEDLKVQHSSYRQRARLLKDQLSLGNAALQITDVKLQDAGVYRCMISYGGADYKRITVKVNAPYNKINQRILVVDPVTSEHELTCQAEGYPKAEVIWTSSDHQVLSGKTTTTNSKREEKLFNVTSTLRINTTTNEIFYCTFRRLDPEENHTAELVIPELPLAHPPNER
T1 sequence (Q9NZQ7 19-238): as the sequence (Q9NZQ7 19-238 limits assumed) above

With `COc1nc(-c2cccc(-c3cccc(NC(=O)c4nc5c(n4C4CC4)CCN(C)C5)c3Cl)c2Cl)ccc1CN1CC2(CC(NC(C)=O)C2)C1` [Embodiment 246, N-(3′-(5-((6-Acetylamino-2-azaspiro[3.3]heptan-2-yl)methyl)-6-methoxypyridin-2-yl)-2,2′-dichloro-[1,1′-biphenyl]-3-yl)-1-cyclopropyl-5-methyl-4,5,6,7-tetrahydro-1H-imidazo[4,5-c]pyridine-2-carboxamide], in experiment [1], the IC50 is 5.4 nM. The Emax in experiment [2] came out at 94%. The ΔTm at 10 µM in experiment [3] worked out at 11 °C.
As to `COc1nc(-c2cccc(-c3cccc(NC(=O)c4nc5c(n4C)CCN(C)C5)c3Cl)c2Cl)ccc1CN1CCC(C#N)CC1` [Embodiment 211, N-(2,2′-Dichloro-3′-(5-((4-cyanopiperidin-1-yl)methyl)-6-methoxypyridin-2-yl)-[1,1′-biphenyl]-3-yl)-1,5-dimethyl-4,5,6,7-tetrahydro-1H-imidazo[4,5-c]pyridine-2-carboxamide], in experiment [2], the Emax was 95% and the IC50 turned out to be 3.1 nM. The ΔTm at 10 µM in experiment [3] is 14.6 °C.
On to `COc1cc(C(=O)Nc2cccc(-c3cccc(NC(=O)c4nc5c(n4C)CCN(C)C5)c3Cl)c2C)ncc1CN[C@@H]1CONC1=O` [Embodiment 96, (R)—N-(2-Chloro-3′-(4-methoxy-5-(((3-carbonylisoxazolidin-4-yl)amino)methyl)picolinamido)-2′-methyl-[1,1′-biphenyl]-3-yl)-1,5-dimethyl-4,5,6,7-tetrahydro-1H-imidazo[4,5-c]pyridine-2-carboxamide], for which the IC50 in experiment [1] worked out at 2.3 nM. The ΔTm at 10 µM in experiment [3] turned out to be 10.5 °C.
`COc1nc(-c2cccc(-c3cccc(NC(=O)c4nc5c(n4C)CCN(C)C5)c3Cl)c2Cl)ccc1CN1CCC(C)(C#N)CC1` [Embodiment 212, N-(2,2′-Dichloro-3′-(5-((4-cyano-4-methylpiperidin-1-yl)methyl)-6-methoxypyridin-2-yl)-[1,1′-biphenyl]-3-yl)-1,5-dimethyl-4,5,6,7-tetrahydro-1H-imidazo[4,5-c]pyridine-2-carboxamide]: in experiment [2], the Emax amounted to 94% and the IC50 came out at 11.6 nM. Moreover, the ΔTm at 10 µM in experiment [3] was found to be 14.9 °C.
In the case of `COc1nc(-c2cccc(-c3cccc(NC(=O)c4nc5c(n4C4CC4)CCN(C)C5)c3Cl)c2Cl)ccc1CN[C@H]1CCOC[C@@H]1O` (relative stereo) [Embodiment 244, 1-Cyclopropyl-N-(2,2′-dichloro-3′-(5-(((trans-3-hydroxytetrahydro-2H-pyran-4-yl)amino)methyl)-6-methoxypyridin-2-yl)-[1,1′-biphenyl]-3-yl)-5-methyl-4,5,6,7-tetrahydro-1H-imidazo[4,5-c]pyridine-2-carboxamide], the Emax in experiment [2] amounted to 94%. In experiment [3], the ΔTm at 10 µM stood at 11.4 °C.
In the case of `COc1nc(-c2cccc(-c3cccc(NC(=O)c4nc5c(n4C)CCN(C)C5)c3Cl)c2Cl)ccc1CN1CCN(C(C)=O)CC1` [Embodiment 203, N-(3′-(5-((4-Acetylpiperazin-1-yl)methyl)-6-methoxypyridin-2-yl)-2,2′-dichloro-[1,1′-biphenyl]-3-yl)-1,5-dimethyl-4,5,6,7-tetrahydro-1H-imidazo[4,5-c]pyridine-2-carboxamide], in experiment [2], the Emax was 95%. Also, in experiment [3], the “ΔTm (° C.)” value came to 10.5 °C and the ΔTm at 10 µM amounted to 13.5 °C.
Turning to `COc1cc(C(=O)Nc2cccc(-c3cccc(NC(=O)c4nc5c(n4C)CCN(C)C5)c3Cl)c2C)ncc1CNc1cc(C)ncn1` [Embodiment 91, N-(2-Chloro-3′-(4-methoxy-5-(((6-methylpyrimidin-4-yl)amino)methyl)picolinamido)-2′-methyl-[1,1′-biphenyl]-3-yl)-1,5-dimethyl-4,5,6,7-tetrahydro-1H-imidazo[4,5-c]pyridine-2-carboxamide], in experiment [2], the Emax was determined as 81% and the IC50 was found to be 14 nM. The ΔTm at 10 µM in experiment [3] was 10.3 °C.
Take `CCn1c(C(=O)Nc2cccc(-c3cccc(-c4ccc(CNC5COC5)c(OC)n4)c3Cl)c2Cl)nc2c1CCN(C)C2` [Embodiment 236, N-(2,2′-Dichloro-3′-(6-methoxy-5-((oxetan-3-ylamino)methyl)pyridin-2-yl)-[1,1′-biphenyl]-3-yl)-1-ethyl-5-methyl-4,5,6,7-tetrahydro-1H-imidazo[4,5-c]pyridine-2-carboxamide]: in experiment [2], the Emax amounted to 90%. Further, the ΔTm at 10 µM in experiment [3] was determined as 10.6 °C.
`COc1nc(-c2cccc(-c3cccc(NC(=O)c4nc5c(n4C)CCN(C)C5)c3Cl)c2Cl)ccc1CN1CC(CC#N)C1` [Embodiment 182, N-(2,2′-Dichloro-3′-(5-((3-(cyanomethyl)azetidin-1-yl)methyl)-6-methoxypyridin-2-yl)-[1,1′-biphenyl]-3-yl)-1,5-dimethyl-4,5,6,7-tetrahydro-1H-imidazo[4,5-c]pyridine-2-carboxamide]: the Emax in experiment [2] was found to be 97%. Also, in experiment [3], the ΔTm at 10 µM turned out to be 16.3 °C.
Take `COc1cc(C(=O)Nc2cccc(-c3cccc(NC(=O)c4nc5c(n4C)CCN(C)C5)c3Cl)c2C)ncc1CNc1ccc(C)nc1` [Embodiment 92, N-(2-Chloro-3′-(4-methoxy-5-(((6-methylpyridin-3-yl)amino)methyl)picolinamido)-2′-methyl-[1,1′-biphenyl]-3-yl)-1,5-dimethyl-4,5,6,7-tetrahydro-1H-imidazo[4,5-c]pyridine-2-carboxamide]: in experiment [2], the Emax is 83% and the IC50 was 9 nM. In addition, in experiment [3], the ΔTm at 10 µM amounted to 10.5 °C.
As for `COc1nc(-c2cccc(-c3cccc(NC(=O)c4nc5c(n4C)CCN(C)C5)c3Cl)c2Cl)ccc1CN1CC2CC(C1)N2C(C)=O` [Embodiment 206, N-(3′-(5-((6-Acetyl-3,6-diazabicyclo[3.1.1]heptan-3-yl)methyl)-6-methoxypyridin-2-yl)-2,2′-dichloro-[1,1′-biphenyl]-3-yl)-1,5-dimethyl-4,5,6,7-tetrahydro-1H-imidazo[4,5-c]pyridine-2-carboxamide], the Emax in experiment [2] worked out at 90%. In addition, the ΔTm at 10 µM in experiment [3] came out at 11.6 °C.
In the same order, the values of `COc1nc(-c2cccc(-c3cccc(NC(=O)c4nc5c(n4C)CCN(C)C5)c3Cl)c2Cl)ccc1CN1CC2(CCN(C(=O)C(C)C)C2)C1` [Embodiment 196, N-(2,2′-Dichloro-3′-(5-((6-isobutyryl-2,6-diazaspiro[3.4]octan-2-yl)methyl)-6-methoxypyridin-2-yl)-[1,1′-biphenyl]-3-yl)-1,5-dimethyl-4,5,6,7-tetrahydro-1H-imidazo[4,5-c]pyridine-2-carboxamide] are 96% and 12.4 °C.
In the same order, the values of `COc1nc(-c2cccc(-c3cccc(NC(=O)c4nc5c(n4C)CCN(C)C5)c3Cl)c2Cl)ccc1CN1CCN(C(=O)C(C)C)CC1` [Embodiment 199, N-(2,2′-Dichloro-3′-(5-((4-isobutyrylpiperazin-1-yl)methyl)-6-methoxypyridin-2-yl)-[1,1′-biphenyl]-3-yl)-1,5-dimethyl-4,5,6,7-tetrahydro-1H-imidazo[4,5-c]pyridine-2-carboxamide] are 93% and 11.4 °C.
In the same order, the values of `COc1nc(-c2cccc(-c3cccc(NC(=O)c4nc5c(n4C)CCN(C)C5)c3Cl)c2Cl)ccc1CN1CCN(C(=O)C2CC2)CC1` [Embodiment 200, N-(2,2′-Dichloro-3′-(5-((4-(cyclopropylcarbonyl)piperazin-1-yl)methyl)-6-methoxypyridin-2-yl)-[1,1′-biphenyl]-3-yl)-1,5-dimethyl-4,5,6,7-tetrahydro-1H-imidazo[4,5-c]pyridine-2-carboxamide] are 95% and 12.5 °C.
For the molecule `CCC(=O)N1CCN(Cc2ccc(-c3cccc(-c4cccc(NC(=O)c5nc6c(n5C)CCN(C)C6)c4Cl)c3Cl)nc2OC)CC1` [Embodiment 201, N-(2,2′-Dichloro-3′-(6-methoxy-5-((4-propionylpiperazin-1-yl)methyl)pyridin-2-yl)-[1,1′-biphenyl]-3-yl)-1,5-dimethyl-4,5,6,7-tetrahydro-1H-imidazo[4,5-c]pyridine-2-carboxamide], the Emax in experiment [2] was 94%. The ΔTm at 10 µM in experiment [3] turned out to be 12.1 °C.

These data come from patent publication US20230105212A1, “BIPHENYL DERIVATIVE INHIBITOR, PREPARATION METHOD THEREFOR AND USE THEREOF” (SHANGHAI HANSOH BIOMEDICAL CO., LTD., priority 2020, published 2023).
